We go through 70 compounds from article PMC12040169 (PLOS Biology, 2025).

The structures appear in SMILES notation.

The viability is a read-out of living cells in per cent, often relative to untreated cells.

The first data set in a line: in vitro. The following applies: human, hela cells, % viability.
On to `Nc1ccc(-c2nc(-c3ccccc3)c3cc(-c4ccc5nc(-c6ccc(N)cc6)nc(-c6ccccc6)c5c4)ccc3n2)cc1` [CBK261152], for which the viability at 28.5 h, 10 µM amounted to 107%.
For the compound `Nc1ccc(Cc2ccc(N)c(C(=O)O)c2)cc1C(=O)O` [CBK261153], the viability at 28.5 h, 10 µM was determined as 92.3%.
Same read-out and setting: the figure for `Cc1ccc(S(=O)(=O)Nc2ccc(C3(c4ccc(NS(=O)(=O)c5ccc(C)cc5)cc4)c4ccccc4-c4ccccc43)cc2)cc1` [CBK261154] is 102%; for `N#Cc1ccc(Oc2cccc(/N=C/c3ccc(/C=N/c4cccc(Oc5ccc(C#N)cc5)c4)cc3)c2)cc1` [CBK261157] it is 93.7%.
In the case of `OB(O)c1ccc(Oc2ccc(B(O)O)cc2)cc1` [CBK261159], the viability at 28.5 h, 10 µM was 102%.
Still for that read-out and setting: the figure for `O=C1c2ccccc2C(c2ccc(NC(=O)c3cccc4ccccc34)cc2)(c2ccc(NC(=O)c3cccc4ccccc34)cc2)c2ccccc21` [CBK261162] is 103%; for `O=C(Nc1ccc(C2(c3ccc(NC(=O)c4cccc5ccccc45)cc3)c3ccccc3-c3ccccc32)cc1)c1cccc2ccccc12` [CBK261163] it is 102%; for `O=C(Nc1ccc(-c2c3ccccc3c(-c3ccc(NC(=O)c4cccc5ccccc45)cc3)c3ccccc23)cc1)c1cccc2ccccc12` [CBK261164] it is 93.6%.
The same measure, in the same setting: in the case of `CC(=O)Nc1ccc(-c2nc3cc(-c4nc5ccc(NC(C)=O)cc5[nH]4)ccc3[nH]2)cc1` [CBK261165] it was 91.2%.
The same measure, in the same setting: in the case of `O=C(Nc1ccccc1C(=O)O)c1cccc(C(=O)Nc2ccccc2C(=O)O)c1` [CBK261166] it was 105%; in that of `NC(=O)c1ccccc1NC(=O)c1ccc(C(=O)Nc2ccccc2C(N)=O)cc1` [CBK261167], 106%; in that of `NC(=O)c1ccccc1NC(=O)c1ccc2ccccc2c1` [CBK261171], 90.8%.
For the compound `COC(=O)CCCNS(=O)(=O)c1ccc([N+](=O)[O-])cc1` [CBK261172], the viability at 28.5 h, 10 µM worked out at 109%.
Regarding `CCOC(=O)C(C(C)=O)(N1CCOCC1)N1CCOCC1` [CBK261173], the viability at 28.5 h, 10 µM stood at 90.2%.
Take `Cc1ccc2nc(C(=O)O)cc(C(=O)O)c2c1` [CBK261174]: the viability at 28.5 h, 10 µM amounted to 91.6%.
As for `C/C(=N\NC(=O)Cc1ccc([N+](=O)[O-])cc1[N+](=O)[O-])c1ccccc1O` [CBK261175], the viability at 28.5 h, 10 µM turned out to be 88.8%.
The same measure, in the same setting: the figure for `O=C(O)c1ccc2c(c1)C(=O)N(c1cccc(/C=C/C(=O)c3cccc(N4C(=O)c5ccc(C(=O)O)cc5C4=O)c3)c1)C2=O` [CBK261178] is 89.8%.
On the same count and under the same terms, in the case of `O=C(O)c1ccc(Oc2cccc([N+](=O)[O-])c2)cc1C(=O)O` [CBK261179] it was 110%.
Still for that read-out and setting: the figure for `Nc1cccc(Oc2ccc(C(=O)O)c(C(=O)O)c2)c1` [CBK261180] is 89.4%; for `O=C(O)c1cc(NC(=O)c2ccc(Oc3ccc([N+](=O)[O-])cc3)cc2)cc(C(=O)O)c1` [CBK261188] it is 88.6%.
Consider `O=C(O)c1ccc(S(=O)(=O)c2ccc3c(c2)C(=O)N(c2nccs2)C3=O)cc1` [CBK261189], for which the viability at 28.5 h, 10 µM turned out to be 90.1%.
Consider `O=C1c2ccc(Oc3cccc([N+](=O)[O-])c3)cc2C(=O)N1c1ccccn1` [CBK261190], for which the viability at 28.5 h, 10 µM was 95.8%.
On to `O=C(O)c1ccc2c(c1)C(=O)N(c1ccc(-c3ccnc(-c4ccc(N5C(=O)c6ccc(C(=O)O)cc6C5=O)cc4)n3)cc1)C2=O` [CBK261192], for which the viability at 28.5 h, 10 µM is 104%.
The same measure, in the same setting: the figure for `O=C(O)c1cc(C(=O)O)cc(N2C(=O)C3C4C=CC(C4)C3C2=O)c1` (stereo not shown) [CBK261193] is 97.5%; for `O=C(c1ccc2c(c1)C(=O)N(c1ccncc1)C2=O)c1ccc2c(c1)C(=O)N(c1ccncc1)C2=O` [CBK261194] it is 88.5%.
As to `O=C(O)c1ccc2c(c1)C(=O)N(c1ccc(C3(c4ccc(N5C(=O)c6ccc(C(=O)O)cc6C5=O)cc4)c4ccccc4-c4ccccc43)cc1)C2=O` [CBK261195], the viability at 28.5 h, 10 µM was 92.2%.
On the same count and under the same terms, the figure for `O=C(Nc1ccccc1)c1ccc2c(c1)C(=O)N(c1cccc(N3C(=O)c4ccc(C(=O)Nc5ccccc5)cc4C3=O)n1)C2=O` [CBK261197] is 91.5%; for `Cc1ccc(NC(=O)c2ccc3c(c2)C(=O)N(c2cccc(N4C(=O)c5ccc(C(=O)Nc6ccc(C)cc6)cc5C4=O)n2)C3=O)cc1` [CBK261198] it is 90.8%.
Same read-out and setting: the figure for `O=C(O)c1ccc(Oc2ccc3c(c2)C(=O)N(c2nccs2)C3=O)cc1` [CBK261200] is 101%.
The same measure, in the same setting: in the case of `O=C(Nc1cccc(I)c1)c1ccc(Oc2ccc(C(=O)Nc3cccc(I)c3)cc2)cc1` [CBK261201] it was 92.6%; in that of `O=C(CSCc1cccc(Br)c1)Nc1cccc2cccnc12` [CBK261204], 101%.
Regarding `COc1ccc(/C(C)=N/NC(=O)CSCc2cccc(Br)c2)cc1` [CBK261205], the viability at 28.5 h, 10 µM was found to be 81.4%.
Same read-out and setting: in the case of `Cc1ccc(C(C)C)cc1OCC(=O)N/N=C\c1cc([N+](=O)[O-])ccc1O` [CBK261206] it was 92.6%.
The same measure, in the same setting: in the case of `NNC(=O)C(Oc1ccccc1)Oc1ccccc1` [CBK261210] it was 100%; in that of `CC(/C=C/c1ccccc1)=N\NC(=O)C(C)Oc1ccc(Br)cc1` (stereo not shown) [CBK261212], 99.7%; in that of `NNC(=O)CCc1ccccc1O` [CBK261214], 97.2%.
The same measure, in the same setting: the figure for `Ic1ccc2c3ccc(I)cc3c3[nH]c(-c4ccccc4)nc3c2c1` [CBK261218] is 92.9%; for `O=C(O)c1nc(/N=C/c2ccc(C#Cc3ccccc3)cc2)n[nH]1` [CBK261219] it is 90.3%; for `O=C1C(c2ccccc2)=C(c2ccccc2)C(c2ccc(C3=C(c4ccccc4)C(=O)C(c4ccccc4)=C3c3ccccc3)cc2)=C1c1ccccc1` [CBK261220] it is 87.4%.
With `COc1ccc(/C=N/c2cc(S(=O)(=O)c3ccc(O)c(/N=C/c4ccc(OC)c(O)c4)c3)ccc2O)cc1O` [CBK261223], the viability at 28.5 h, 10 µM stood at 92.3%.
Same read-out and setting: the figure for `COc1cc(/C=N/c2cccc3c(/N=C/c4ccc(O)c(OC)c4)cccc23)ccc1O` [CBK261224] is 85.8%; for `Cc1[nH]c2ccccc2c1/C=N/c1ccc(/N=C/c2c(C)[nH]c3ccccc23)cc1` [CBK261226] it is 83.4%.
Still for that read-out and setting: the figure for `Cc1[nH]c2ccccc2c1/C=N/c1cccc2c(/N=C/c3c(C)[nH]c4ccccc34)cccc12` [CBK261227] is 97.6%; for `CCn1c2ccccc2c2cc(/C=N/c3cc(S(=O)(=O)c4ccc(O)c(/N=C/c5ccc6c(c5)c5ccccc5n6CC)c4)ccc3O)ccc21` [CBK261229] it is 76.5%.
Still for that read-out and setting: the figure for `O=C(/C=C\c1cccs1)NC(=S)Nc1ccc([N+](=O)[O-])cc1O` [CBK261231] is 89.4%.
With `COc1ccc(OCC(=O)N/N=C\c2c(OC)ccc3ccccc23)c(Br)c1` [CBK261235], the viability at 28.5 h, 10 µM is 86.3%.
Same read-out and setting: in the case of `Cc1cccc(NCC(=O)N/N=C/c2cc3ccccc3nc2Cl)c1` [CBK261236] it was 90%; in that of `O=S1(=O)c2cc(/N=C/c3c(O)ccc4ccccc34)ccc2-c2ccc(/N=C/c3c(O)ccc4ccccc34)cc21` [CBK261240], 84.7%; in that of `c1ccc2sc(CCCCc3nc4ccccc4s3)nc2c1` [CBK261248], 92.5%.
With `O=C(O)C1CCCN1S(=O)(=O)c1ccc(Cl)cc1` (stereo not shown) [CBK261249], the viability at 28.5 h, 10 µM came out at 88.1%.
With `CC(=O)N/N=C(\C)c1ccc(-n2cnnn2)cc1` [CBK261252], the viability at 28.5 h, 10 µM amounted to 95.9%.
The same measure, in the same setting: in the case of `O=C(O)c1ccc(Sc2ccc(S(=O)(=O)c3ccc(C(=O)O)c(C(=O)O)c3)cc2)cc1` [CBK261253] it was 106%.
Still for that read-out and setting: in the case of `O=C(O)CSc1ccc(Oc2ccc(SCC(=O)O)cc2)cc1` [CBK261254] it was 92.6%; in that of `O=C(CSc1cccc2c(SCC(=O)c3ccccc3)cccc12)c1ccccc1` [CBK261255], 87.9%; in that of `O=C(CCS(=O)(=O)c1cc(Cl)ccc1Cl)OCC(=O)c1ccccc1` [CBK261256], 90.1%.
The same measure, in the same setting: the figure for `O=C(O)c1cccc(NS(=O)(=O)c2cccc(S(=O)(=O)c3ccc(Cl)c(Cl)c3)c2)c1` [CBK261259] is 102%; for `O=C1CC(N2CCN(c3ccccc3)CC2)C(=O)N1c1cccc2ccccc12` (stereo not shown) [CBK261263] it is 92.8%; for `Cc1ccccc1-n1nc(-c2ccc(NC(=O)c3ccccc3)cc2)cc1NC(=O)c1ccccc1` [CBK261264] it is 82.2%.
For `Nc1cc(N)nc(SCc2ccccc2)n1` [CBK261266], the viability at 28.5 h, 10 µM turned out to be 96.1%.
On the same count and under the same terms, in the case of `N#Cc1c(N)nc(SCC(=O)O)c(C#N)c1-c1ccc(O)cc1` [CBK261270] it was 98%.
Consider `O=C(O)c1cnc(-c2ccccc2)nc1` [CBK261272], for which the viability at 28.5 h, 10 µM came to 93.2%.
On the same count and under the same terms, in the case of `Brc1cnc(OCc2ccccc2)nc1OCc1ccccc1` [CBK261274] it was 101%; in that of `Oc1ccccc1-c1cc(-c2ccccc2)c2c(ccc3ncccc32)n1` [CBK261276], 91.9%.
Turning to `CN(C)Cc1ccccc1C(O)c1ccccc1` (stereo not shown) [CBK261277], the viability at 28.5 h, 10 µM came to 94.4%.
The same measure, in the same setting: in the case of `CCC(C)NC(=O)C(Cc1ccc([N+](=O)[O-])cc1)N1C(=O)c2ccccc2C1=O` (stereo not shown) [CBK261278] it was 105%.
Same read-out and setting: in the case of `O=C(NCc1ccccc1)C(Cc1ccc([N+](=O)[O-])cc1)N1C(=O)c2ccccc2C1=O` (stereo not shown) [CBK261279] it was 95.9%; in that of `O=C(COc1ccccc1)N/N=C/c1ccc[nH]1` [CBK261281], 104%.
As to `C(=N\c1ccc(Cc2ccc(/N=C/c3ccc[nH]3)cc2)cc1)/c1ccc[nH]1` [CBK261282], the viability at 28.5 h, 10 µM turned out to be 101%.
On the same count and under the same terms, the figure for `CNCC(=O)N1c2ccccc2CCc2ccc(NC(=O)OC)cc21` [CBK261285C] is 96.5%.

Still in this data set, the particulars now being: human, hela cells, % viability, bulk resorufin, single well.
On to `O=C(Nc1ccc(NC(=O)c2cccc([N+](=O)[O-])c2)c(Cl)c1)c1cccc([N+](=O)[O-])c1` [CBK261196], for which the viability at 28.5 h, 10 µM is 105%.
